Measurements published in US11325899B2, “Benzofurane and benzothiophene derivatives as PGE2 receptor modulators” (IDORSIA PHARMACEUTICALS LTD, priority 2017, dated 2022).

Legend:
PTGER2 (EP2) = target: T1, PTGER2 (EP2) (Homo sapiens, UniProt P43116); experiment: hEP2 b-arrestin assay (PathHunter HEK 293 PTGER2 b-arrestin cells); format: cell-based; details: antagonistic activity, beta-arrestin assay; read-out: hEP2 b-arr IC50
T1 construct: host or cells: HEK 293 (PathHunter PTGER2 b-arrestin cell line)
Experimental: (§1) The antagonistic activities of the compounds of formula (I) on the EP2 and EP4 receptors are determined in accordance with the following experimental method.
(§2) The assay is using the PathHunter™ HEK 293 PTGER2 and PTGER4 b-arrestin cell lines from DiscoverX. The system is based on the Enzyme Fragment Complementation Technology. Two complementing fragments of the b-galactosidase enzyme are expressed within stably transfected cells. The larger portion of b-gal, termed EA for Enzyme Acceptor, is fused to the C-terminus of b-arrestin 2. The smaller fragment, termed ProLink™ tag, is fused to PTGER2 (EP2) or PTRGER4 (EP4) at the C-terminus. Upon activation, b-arrestin is recruited which forces the interaction of ProLink and EA, allowing complementation of the two fragments of b-gal and the formation of a functional enzyme which is capable of hydrolysing the substrate and generating a chemiluminescent signal.
(§3) The HEK 293 PTGER2 b-arrestin cells (DiscoverX 93-021-4C1) are detached from culture dishes with a cell dissociation buffer (Invitrogen, 13151-014), and collected in growing medium (GM: DMEM+Glutamax-I (Invitrogen 32430)/10% FCS, 1% Penicilin/streptomycin). 5000 cells per well of a 384 well plate (white with white bottom Greiner 781080) are seeded in 20 ul per well of GM. Plate is incubated at 37° C., 5% C02 for 24 hours.
(§4) Stock solutions of test compounds are made at a concentration of 10 mM in DMSO, and serially diluted in DMSO to concentrations required for inhibition dose response curves (tested concentration range 10 μM-2 nM or 1 μM-0.2 nM).
PGE2 (Cayman 14010, stock solution: 10 mM in DMSO) is used as agonist at 5 μM final concentration, corresponding to EC80.
Five microliters of diluted compounds are transferred into the assay plate. Plate is pre-incubated 15 minutes at 37° C. Then five microliters of PGE2 (final conc. 5 μM) are transferred into the assay plate. Plate is incubated 120 minutes at 37° C.
(§5) PathHunter Glo Detection Kit components are thawed and mix according to manufacturer's instructions: 1 part Galacton Star Substrate with 5 parts Emerald II™ Solution, and 19 parts of PathHunter Cell Assay Buffer, respectively. Twelve μl of reagent are transferred to the assay plate and incubate for 1 hour at room temperature in the dark. Luminescence counts are read on a BMG Fluostar Optima reader according to manufacturer's instructions.
(§6) For each compound concentration calculate of the percentage of activity compared to DMSO control value as average±STDEV. (each concentration is measured in duplicate)
(§7) IC50 values and curves are generated with XLfit software (IDBS) using Dose-Response One Site model 203. When compounds were measured multiple times, mean values are given.

PTGER4 (EP4) = target: T2, PTGER4 (EP4) (Homo sapiens, UniProt P35408); experiment: hEP4 b-arrestin assay (PathHunter HEK 293 PTGER4 b-arrestin cells); format: cell-based; details: antagonistic activity, beta-arrestin assay; read-out: hEP4 b-arr IC50
T2 construct: host or cells: HEK 293 (PathHunter PTGER4 b-arrestin cell line)
Experimental: as §1, §2
as §3, with “PTGER4” for “PTGER2”, “93-030-4C1)” for “93-021-4C1)”
as §4
PGE2 (Cayman 14010, stock solution: 100 uM in DMSO) is used as agonist at 20 nM final concentration, corresponding to EC80.
Five microliters of diluted compounds are transferred into the assay plate. Plate is pre-incubated 15 minutes at 37° C. Then five microliters of PGE2 (final conc. 20 nM) are transferred into the assay plate. Plate is incubated 120 minutes at 37° C.
as §5, §6, §7

T1 sequence (P43116 whole entry): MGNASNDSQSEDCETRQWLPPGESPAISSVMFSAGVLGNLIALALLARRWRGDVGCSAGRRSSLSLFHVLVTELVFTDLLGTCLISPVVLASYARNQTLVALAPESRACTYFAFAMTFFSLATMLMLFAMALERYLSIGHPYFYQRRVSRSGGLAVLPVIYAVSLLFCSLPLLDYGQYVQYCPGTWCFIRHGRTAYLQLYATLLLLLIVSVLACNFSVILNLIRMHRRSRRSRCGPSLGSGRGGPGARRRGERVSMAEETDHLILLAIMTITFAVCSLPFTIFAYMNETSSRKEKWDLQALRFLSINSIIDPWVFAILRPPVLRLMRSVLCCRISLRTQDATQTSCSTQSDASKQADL
T2 sequence (P35408 whole entry): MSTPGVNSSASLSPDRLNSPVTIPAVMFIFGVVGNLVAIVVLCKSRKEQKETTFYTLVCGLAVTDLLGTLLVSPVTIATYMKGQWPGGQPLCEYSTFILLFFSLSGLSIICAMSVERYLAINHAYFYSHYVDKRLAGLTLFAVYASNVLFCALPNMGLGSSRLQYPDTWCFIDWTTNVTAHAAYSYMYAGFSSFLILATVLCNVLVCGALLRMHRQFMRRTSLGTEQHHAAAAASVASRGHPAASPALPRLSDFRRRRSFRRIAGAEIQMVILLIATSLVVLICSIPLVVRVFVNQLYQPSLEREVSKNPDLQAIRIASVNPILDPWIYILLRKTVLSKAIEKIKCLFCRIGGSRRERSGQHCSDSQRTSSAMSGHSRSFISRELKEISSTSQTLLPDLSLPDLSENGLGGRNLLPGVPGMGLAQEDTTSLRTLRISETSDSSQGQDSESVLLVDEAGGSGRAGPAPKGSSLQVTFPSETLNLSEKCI

Row | Compound | IC50 (PTGER2 (EP2)) [µM] | IC50 (PTGER4 (EP4)) [µM]
1 | Cc1sc2c(C)cc(F)cc2c1CCNc1cc(-c2ccc(CC(=O)O)c(OC(C)C)c2)ncn1 [Example 192, (4-{6-[2-(5-Fluoro-2,7-dimethyl-benzo[b]thiophen-3-yl)-ethylamino]-pyrimidin-4-yl}-2-isopropoxy-phenyl)-acetic acid] | 0.072 | 0.261
2 | Cc1[nH]c(-c2cc(NCCc3c(C)sc4c(C)cc(F)cc34)ncn2)cc1C(=O)O [Example 205, 5-{6-[2-(5-Fluoro-2,7-dimethyl-benzo[b]thiophen-3-yl)-ethylamino]-pyrimidin-4-yl}-2-methyl-1 H-pyrrole-3-carboxylic acid] | 0.074 | 0.771
3 | CCOc1cc(-c2cc(NCCc3c(C)sc4c(C)cc(F)cc34)ncn2)ccc1NC=O [Example 191, N-(2-Ethoxy-4-{6-[2-(5-fluoro-2,7-dimethyl-benzo[b]thiophen-3-yl)-ethylamino]-pyrimidin-4-yl}-phenyl)-formamide] | 0.045 | 0.135
4 | CCCc1cc(-c2cc(NCCc3c(C)sc4c(C)cc(F)cc34)ncn2)sc1CC(=O)O [Example 219, (5-{6-[2-(5-Fluoro-2,7-dimethyl-benzo[b]thiophen-3-yl)-ethylamino]-pyrimidin-4-yl}-3-propyl-thiophen-2-yl)-acetic acid] | 0.041 | 0.211
5 | Cc1sc2c(C)cc(F)cc2c1CCNc1cc(-c2ccc(NC=O)cc2)ncn1 [Example 188, N-(4-{6-[2-(5-Fluoro-2,7-dimethyl-benzo[b]thiophen-3-yl)-ethylamino]-pyrimidin-4-yl}-phenyl)-formamide] | 0.098 | 0.694
6 | CCOc1cc(-c2cc(NCCc3c(C)sc4c(C)cc(F)cc34)ncn2)c(F)cc1CC(=O)O [Example 217, (2-Ethoxy-5-fluoro-4-{6-[2-(5-fluoro-2,7-dimethyl-benzo[b]thiophen-3-yl)-ethylamino]-pyrimidin-4-yl}-phenyl)-acetic acid] | 0.126 | 0.847

Molecules with a lower IC50 (PTGER2 (EP2)), results first:

Row | IC50 (PTGER2 (EP2)) [µM] | IC50 (PTGER4 (EP4)) [µM] | Compound
7 | 0.019 | 0.469 | CCCc1cc(-c2cc(NCCc3c(C)sc4c(C)cc(F)cc34)ncn2)ccc1C(=O)NC [Example 210, 4-{6-[2-(5-Fluoro-2,7-dimethyl-benzo[b]thiophen-3-yl)-ethylamino]-pyrimidin-4-yl}-N-methyl-2-propyl-benzamide]
8 | 0.008 | 0.757 | CSc1cc(-c2cc(NCCc3c(C#N)sc4ccccc34)ncn2)ccc1C(=O)O [Example 173, 4-{6-[2-(2-Cyano-benzo[b]thiophen-3-yl)-ethylamino]-pyrimidin-4-yl}-2-methylsulfanyl-benzoic acid]
9 | 0.016 | 0.239 | COc1cc(-c2cc(NCCc3c(C)sc4c(C)cc(F)cc34)ncn2)ccc1-c1cc(O)no1 [Example 203, 5-(4-{6-[2-(5-Fluoro-2,7-dimethyl-benzo[b]thiophen-3-yl)-ethylamino]-pyrimidin-4-yl}-2-methoxy-phenyl)-isoxazol-3-ol [tautomeric form: 5-(4-(6-((2-(5-fluoro-2,7-dimethylbenzo[b]thiophen-3-yl)ethyl)amino)pyrimidin-4-yl)-2-methoxyphenyl)isoxazol-3(2H)-one]]
10 | 0.005 | 0.363 | CCOc1cc(-c2cc(NCCc3c(C)sc4c(C)cc(F)cc34)ncn2)[nH]c1C(=O)O [Example 199, 3-Ethoxy-5-{6-[2-(5-fluoro-2,7-dimethyl-benzo[b]thiophen-3-yl)-ethylamino]-pyrimidin-4-yl}-1 H-pyrrole-2-carboxylic acid]
11 | 0.01 | 0.288 | CCCc1cc(-c2cc(NCCc3c(C)sc4c(C)cc(F)cc34)ncn2)ccc1C(N)=O [Example 206, 4-{6-[2-(5-Fluoro-2,7-dimethyl-benzo[b]thiophen-3-yl)-ethylamino]-pyrimidin-4-yl}-2-propyl-benzamide]
12 | 0.018 | 0.667 | CCc1cc(-c2cc(NCCc3c(C)sc4c(C)cc(F)cc34)ncn2)ccc1C(=O)O [Example 193, 2-Ethyl-4-{6-[2-(5-fluoro-2,7-dimethyl-benzo[b]thiophen-3-yl)-ethylamino]-pyrimidin-4-yl}-benzoic acid]
